Columns and labels:
[1] = system: oilseed rape; experiment: Test C postemergence; assay type: in vivo, Brassica napus; details: for Plant response rating (0 to 100), Oilseed Rape: postemergence; for Plant response rating, Oilseed Rape: Postemergence, scale 0 to 100 (0 no effect, 100 complete control)
Procedure, shortened: (§1)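 Seeds were sown in loam–sand blend and sprayed preemergence, while plants at 1- to 4-leaf stage (2–18 cm) in peat-based medium received postemergence sprays; test chemicals were formulated in a non-phytotoxic solvent with surfactant. After 13–15 days in a greenhouse, injury was rated visually against controls, 0 (no effect) to 100 (complete control).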

[2] = system: barnyardgrass; experiment: Test A postemergence; assay type: in vivo, Echinochloa crus-galli
Procedure, shortened: (§2)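 Scoring: eye-based comparison with untreated controls, 0 for no effect through 100 for complete control, at about day 10. Treatments: directed soil spray preemergence; foliar spray postemergence on 2–10 cm plants at the one- to two-leaf stage. Medium: loam soil with sand.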

[3] = system: large (Lg) crabgrass; experiment: Test C postemergence; assay type: in vivo, Digitaria sanguinalis; details: for Plant response rating, Crabgrass, Large: Postemergence
Procedure, shortened: as §1

[4] = system: Italian ryegrass; experiment: Test C preemergence; assay type: in vivo, Lolium multiflorum; details: for Ryegrass, Italian plant response rating: preemergence; for Plant response rating, Ryegrass, Italian: Preemergence, 31 g ai/ha, scale 0 to 100, 0 no effect, 100 complete control
Procedure, shortened: as §1

[5] = system: oilseed rape; experiment: Test C preemergence; assay type: in vivo, Brassica napus; details: for Oilseed Rape plant response rating: preemergence; for Plant response rating, Oilseed Rape: Preemergence, 31 g ai/ha, scale 0 to 100, 0 no effect, 100 complete control
Procedure, shortened: as §1

[6] = system: ragweed; experiment: Test C preemergence; assay type: in vivo, Ambrosia elatior; details: for Ragweed plant response rating: preemergence; for Plant response rating, Ragweed: Preemergence, 31 g ai/ha, scale 0 to 100, 0 no effect, 100 complete control
Procedure, shortened: as §1

[7] = system: blackgrass; experiment: Test C preemergence; assay type: in vivo, Alopecurus myosuroides; details: for Blackgrass plant response rating: preemergence; for Plant response rating, Blackgrass: Preemergence, 31 g ai/ha, scale 0 to 100, 0 no effect, 100 complete control
Procedure, shortened: as §1

[8] = system: yellow nutsedge; experiment: Test C preemergence; assay type: in vivo, Cyperus esculentus; details: for Nutsedge, Yellow plant response rating: preemergence; for Plant response rating, Nutsedge, Yellow: Preemergence, 31 g ai/ha, scale 0 to 100, 0 no effect, 100 complete control
Procedure, shortened: as §1

[9] = system: morningglory; experiment: Test A preemergence; assay type: in vivo, Ipomoea spp.; details: for Plant response rating, Morningglory: 125 g ai/ha, 0 to 100 scale where 0 is no effect and 100 is complete control; for Morningglory plant response rating: 500 g ai/ha, 0 to 100 scale, 0 no effect, 100 complete control, approx. 10 days
Procedure, shortened: as §2

[10] = system: barnyardgrass; experiment: Test C preemergence; assay type: in vivo, Echinochloa crus-galli; details: for Barnyardgrass plant response rating: preemergence; for Plant response rating, Barnyardgrass: Preemergence, 31 g ai/ha, scale 0 to 100, 0 no effect, 100 complete control
Procedure, shortened: as §1

[11] = system: wheat; experiment: Test A postemergence; assay type: in vivo, Triticum aestivum; details: 0 to 100 scale where 0 is no effect and 100 is complete control
Procedure, shortened: as §2

[12] = system: blackgrass; experiment: Test C postemergence; assay type: in vivo, Alopecurus myosuroides; details: for Plant response rating, Blackgrass: Postemergence
Procedure, shortened: as §1

[13] = system: morningglory; experiment: Test C preemergence; assay type: in vivo, Ipomoea coccinea; details: for Morningglory plant response rating: preemergence; for Plant response rating, Morningglory: Preemergence, 31 g ai/ha, scale 0 to 100, 0 no effect, 100 complete control
Procedure, shortened: as §1

[14] = system: giant foxtail; experiment: Test A postemergence; assay type: in vivo, Setaria faberii; details: 0 to 100 scale where 0 is no effect and 100 is complete control
Procedure, shortened: as §2

[15] = system: soybean; experiment: Test C preemergence; assay type: in vivo, Glycine max; details: for Soybean plant response rating: preemergence; for Plant response rating, Soybean: Preemergence, 31 g ai/ha, scale 0 to 100, 0 no effect, 100 complete control
Procedure, shortened: as §1

[16] = system: johnsongrass; experiment: Test C preemergence; assay type: in vivo, Sorghum halepense; details: for Johnsongrass plant response rating: preemergence; for Plant response rating, Johnsongrass: Preemergence, 31 g ai/ha, scale 0 to 100, 0 no effect, 100 complete control
Procedure, shortened: as §1

[17] = 125 g ai/ha, 0 to 100 scale where 0 is no effect and 100 is complete control
[18] = 31 g ai/ha, scale 0 to 100 (0 no effect, 100 complete control), 13 to 15 days
[19] = 62 g ai/ha, scale 0 to 100 (0 no effect, 100 complete control)
[20] = 62 g ai/ha, scale 0 (no effect) to 100 (complete control)
[21] = 125 g ai/ha, scale 0 (no effect) to 100 (complete control)
[22] = 250 g ai/ha, scale 0 (no effect) to 100 (complete control)
[23] = 16 g ai/ha, postemergence, visual rating, scale 0 to 100 (0 no effect, 100 complete control), 13 to 15 days
[24] = 16 g ai/ha, scale 0 to 100 (0 no effect, 100 complete control)

N#Cc1cccc(Oc2ncc(Cl)cn2)c1-n1cc(Cl)cn1 [Compound 72]
75: Ragweed plant response rating [6, 20] | Plant response rating, Barnyardgrass [10]
10: Plant response rating, Crabgrass, Large [3, 19] | Ryegrass, Italian plant response rating [4, 20] | Nutsedge, Yellow plant response rating [8, 21] | Plant response rating, Blackgrass [12, 18] | Plant response rating, Blackgrass [12, 19]
50: Plant response rating, Blackgrass [7] | Plant response rating, Wheat ([11]; 500 g ai/ha)
55: Plant response rating, Oilseed Rape ([1]; 31 g ai/ha, 13 to 15 days) | Plant response rating (0 to 100), Crabgrass, Large ([3]; 125 g ai/ha, postemergence) | Plant response rating, Ragweed [6] | Soybean plant response rating [15, 20] | Johnsongrass plant response rating [16, 20]
0: Nutsedge, Yellow plant response rating [8, 20] | Plant response rating, Nutsedge, Yellow [8]
70: Plant response rating (0 to 100), Oilseed Rape ([1]; 125 g ai/ha) | Plant response rating, Oilseed Rape ([1]; 62 g ai/ha)
100: Plant response rating, Barnyardgrass ([2]; 500 g ai/ha, 0 to 100 scale, 0 no effect, 100 complete control) | Oilseed Rape plant response rating [5, 20] | Oilseed Rape plant response rating [5, 21] | Oilseed Rape plant response rating [5, 22] | Morningglory plant response rating [9] | Barnyardgrass plant response rating [10, 20] | Barnyardgrass plant response rating [10, 21] | Barnyardgrass plant response rating [10, 22] | Morningglory plant response rating [13, 21] | Morningglory plant response rating [13, 22] | Plant response rating, Foxtail, Giant ([14]; 500 g ai/ha) | Johnsongrass plant response rating [16, 21] | Johnsongrass plant response rating [16, 22]
60: Plant response rating (0 to 100), Crabgrass, Large ([3]; 250 g ai/ha, postemergence)
35: Plant response rating, Johnsongrass [16]
40: Ryegrass, Italian plant response rating [4, 21] | Plant response rating, Soybean [15]
95: Ragweed plant response rating [6, 22] | Blackgrass plant response rating [7, 22]
85: Ragweed plant response rating [6, 21] | Morningglory plant response rating [13, 20] | Soybean plant response rating [15, 22]
65: Plant response rating, Oilseed Rape [5]
5: Plant response rating, Crabgrass, Large [3, 18] | Plant response rating, Ryegrass, Italian [4]
20: Plant response rating, Wheat ([11]; 125 g ai/ha)
90: Plant response rating (0 to 100), Oilseed Rape ([1]; 250 g ai/ha) | Plant response rating, Barnyardgrass [2, 17] | Blackgrass plant response rating [7, 20] | Blackgrass plant response rating [7, 21] | Plant response rating, Foxtail, Giant ([14]; 125 g ai/ha)
80: Ryegrass, Italian plant response rating [4, 22] | Nutsedge, Yellow plant response rating [8, 22] | Plant response rating, Morningglory [9] | Soybean plant response rating [15, 21]
15: Plant response rating (0 to 100), Blackgrass ([12]; 125 g ai/ha, postemergence) | Plant response rating (0 to 100), Blackgrass ([12]; 250 g ai/ha, postemergence) | Plant response rating, Morningglory [13]

N#Cc1cccc(Oc2ncc(Cl)cn2)c1-n1cc(OC(F)F)cn1 [Compound 97]
55: Plant response rating (0 to 100), Crabgrass, Large ([3]; 125 g ai/ha, postemergence)
100: Plant response rating, Barnyardgrass ([2]; 500 g ai/ha, 0 to 100 scale where 0 is no effect and 100 is complete control) | Ragweed plant response rating [6, 21] | Plant response rating, Morningglory [9] | Morningglory plant response rating [9] | Barnyardgrass plant response rating [10, 20] | Barnyardgrass plant response rating [10, 21] | Morningglory plant response rating [13, 20] | Morningglory plant response rating [13, 21]
90: Plant response rating, Barnyardgrass [2, 17] | Ryegrass, Italian plant response rating [4, 21] | Oilseed Rape plant response rating [5, 21] | Blackgrass plant response rating [7, 20] | Blackgrass plant response rating [7, 21] | Nutsedge, Yellow plant response rating [8, 21] | Plant response rating, Foxtail, Giant ([14]; 125 g ai/ha) | Plant response rating, Foxtail, Giant ([14]; 500 g ai/ha) | Plant response rating, Soybean [15] | Johnsongrass plant response rating [16, 20] | Johnsongrass plant response rating [16, 21]
85: Ryegrass, Italian plant response rating [4, 20] | Oilseed Rape plant response rating [5, 24] | Plant response rating, Oilseed Rape [5] | Ragweed plant response rating [6, 20]
10: Plant response rating, Crabgrass, Large [3, 18] | Nutsedge, Yellow plant response rating [8, 24] | Blackgrass plant response rating [12, 23] | Plant response rating, Blackgrass [12, 19] | Johnsongrass plant response rating [16, 24]
0: Ryegrass, Italian plant response rating [4, 24] | Blackgrass plant response rating [7, 24]
98: Oilseed Rape plant response rating [5, 20] | Plant response rating, Morningglory [13] | Soybean plant response rating [15, 21]
80: Plant response rating (0 to 100), Oilseed Rape ([1]; 125 g ai/ha) | Plant response rating, Oilseed Rape ([1]; 62 g ai/ha)
70: Plant response rating, Blackgrass [7] | Plant response rating, Wheat ([11]; 500 g ai/ha)
50: Plant response rating, Wheat ([11]; 125 g ai/ha) | Soybean plant response rating [15, 24]
5: Crabgrass, Large plant response rating [3, 23] | Plant response rating, Blackgrass [12, 18]
40: Plant response rating (0 to 100), Blackgrass ([12]; 125 g ai/ha, postemergence) | Morningglory plant response rating [13, 24] | Plant response rating, Johnsongrass [16]
20: Plant response rating, Nutsedge, Yellow [8]
60: Plant response rating, Oilseed Rape ([1]; 31 g ai/ha, 13 to 15 days) | Plant response rating, Ryegrass, Italian [4] | Nutsedge, Yellow plant response rating [8, 20]
15: Plant response rating, Crabgrass, Large [3, 19]
95: Plant response rating, Barnyardgrass [10] | Soybean plant response rating [15, 20]
35: Ragweed plant response rating [6, 24] | Plant response rating, Ragweed [6] | Barnyardgrass plant response rating [10, 24]
